# Target: T1, OA1 (Homo sapiens, UniProt P51810)
# T1 construct: gene GPR143
# Assay: radioligand saturation binding ([3H]-L-DOPA) on OA1-transfected CHO cells, with Scatchard analysis; supported by calcium response and beta-arrestin recruitment
# Assay type: cell-based
# T1 sequence (P51810 whole entry): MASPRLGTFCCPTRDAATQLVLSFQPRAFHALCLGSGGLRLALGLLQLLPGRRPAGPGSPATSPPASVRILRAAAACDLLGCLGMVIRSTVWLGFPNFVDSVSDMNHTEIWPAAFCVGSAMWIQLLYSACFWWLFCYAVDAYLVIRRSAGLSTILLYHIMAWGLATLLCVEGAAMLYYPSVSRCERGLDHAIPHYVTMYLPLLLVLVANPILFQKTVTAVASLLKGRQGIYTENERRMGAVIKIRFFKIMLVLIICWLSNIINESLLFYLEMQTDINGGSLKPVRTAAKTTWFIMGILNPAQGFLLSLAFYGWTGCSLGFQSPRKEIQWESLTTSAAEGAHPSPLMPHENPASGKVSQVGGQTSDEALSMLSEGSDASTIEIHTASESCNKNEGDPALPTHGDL
structure (smiles),measurement,value
N[C@@H](Cc1ccc(O)c(O)c1)C(=O)O [L-DOPA],Kd,9.35 µM
